“Also recorded” adds a separate entry of the source. Where two headings read alike, the source gives them in different places.
What was measured:
[1] = cited from earlier work
[2] = test system: Oxazolone-induced contact dermatitis in the mouse ear; assay: Model 1: oxazolone-induced contact dermatitis in the mouse ear; assay type: in vivo; details: topical in acetone 30 min post-challenge, 0.5 mg/ear (all-trans retinoic acid 0.01 mg/ear)
Experimental: (§1) For in vivo assays, the test compounds were dissolved in acetone. Adapalene was tested as a gel formulation (Differin gel 0.1%, 20-30 mg/treatment). The screening doses were 0.5 mg/ear in model 1 and 2. Exception was all-trans retinoic acid (0.01 mg/ear).
Model 1. Oxazolone-induced Contact Dermatitis in the Mouse Ear
AIM Compounds with anti-inflammatory effects in this model may be useful in treating contact eczema in man.
METHODS Groups of 5-6 mice sensitised to oxazolone 4 days before challenge with oxazolone to the right ear. The resulting oedema (right ear thickness minus left ear thickness) is measured 24, 48 and 72 hours post-challenge (PC), and neutrophil (PMN) influx is determined by the myeloperoxidase (MPO) method 72 hours post-challenge in ear biopsies. The screening dose is 0.5 mg/ear or less applied to the right ear 30 min post-challenge (+30 min). Other dosing regimes are stated.
(§2) RESULTS Results are recorded as % change from control animals using the formula: 100(T/C-1) where T=mean Oedema/MPO treated group and C=mean Oedema/MPO control group. Negative figures represent inhibition and positive stimulation. The level of significance is set at p<0.05 using the Mann-Whitney's U-test. Significant stimulation is stated.

[3] = test system: utriculi (pseudocomedones) of rhino mouse skin; assay: Rhino mouse model (comedolytic and hyperplastic potency, skin irritation); details: for comedolytic effect (reduction in number of utriculi), in words / epidermal hyperplasia (increase in epidermal thickness and follicular epithelia), in words: 1.5% concentration in acetone, three weeks; for % increase in epidermal thickness / % reduction in number of utriculi / Skin irritation YES/NO: once daily for three weeks; for clinical visible skin irritancy, in words: three weeks treatment period
Experimental: (§3) The rhino mouse is an in vivo model for the study of hyperplastic and comedolytic potency of various drugs used in the treatment of acne. The rhino mouse has follicles on the skin. The orifices are distended with horny material and these structures resembles human microcomedones and are referred to as utriculi or pseudocomedones.
(§4) In the present study the effect of a number of compounds were evaluated in the rhino mouse model. […] Additionally a number of marketed products used today for treatment of acne were selected and included for comparison.
(§5) The animals were treated once daily for three weeks including weekends. […] Histological evaluation of the skin was performed at the end of the treatment period.

[4] = test system: TPA-induced chronic skin inflammation in the mouse ear; assay: Model 2: TPA-induced chronic skin inflammation in the mouse ear; assay type: in vivo; details: topical in acetone twice daily day 8-10, once day 11, 0.5 mg/ear (all-trans retinoic acid 0.01 mg/ear)
Experimental: as §1
Model 2. Tpa-induced Chronic Skin Inflammation in the Mouse Ear
AIM Compounds with anti-inflammatory effects in this model may be useful in treating chronic skin disorders in man.
METHODS In groups of 5-6 mice, ear inflammation is induced by multiple topical applications of TPA on alternate days during a 10-day period. The resulting inflammation is treated topically with compounds in acetone solution twice daily on day 8, 9 and 10 and once on day 11. Ear thickness (ET) is determined 5-6 hours after the last drug administration, the mice are sacrificed and myeloperoxidase (MPO) activity (=PMN-infiltration) is determined in ear biopsies, cf. De Young, L. M. et al, Agents Actions, 26, 335-341 (1989); Carlson, R. P. et al, Agents Actions, 17, 197-204 (1985); Alford, J. G. et al, Agents Action, 37, (1992); Stanley, P. L. et at, Skin Pharmacol, 4, 262-271 (1991).
as §2, with “group” for “animals”, “ET/MPO” for “Oedema/MPO”

[5] = test system: utriculi (pseudocomedones) of rhino mouse skin; details: in vivo
Experimental: as §3, §4, §5

[6] = 1.5% in acetone, versus vehicle control
[7] = Basiron gel 5%, versus untreated controls
[8] = Basiron gel 10%, versus untreated controls
[9] = Differin gel 0.1%, versus untreated controls
[10] = Skinoren cream 20%, versus untreated controls
[11] = 20 μg/ml in ethanol, period 1, versus vehicle control

SMILES: CN(C)c1ccc(O)c2c1C[C@H]1C[C@H]3[C@H](N(C)C)C(O)=C(C(N)=O)C(=O)[C@@]3(O)C(O)=C1C2=O [Minocyclin]
- Anti-inflam. ([1]; systemic administration): Yes
- Antibacterial ([1]; systemic administration): Yes
- Comedolytic ([1]; systemic administration): No
- Teratogenic ([1]; systemic administration): Yes

SMILES: Cc1ccccc1C(=O)c1ccc(Nc2ccc(Br)cc2N)cc1Cl [Compound 101, 4-(2-Amino-4-bromophenylamino)-2-chloro-2′-methylbenzophenone]
- SCORE OXA Oedema 48 hours p.c. [2]: 2 (% inhibition Oedema 48 h PC ≧ 35 p < 0.05)
- comedolytic effect (reduction in number of utriculi), in words [3]: comedolytic effect; also recorded: most pronounced comedolytic activity
- epidermal hyperplasia (increase in epidermal thickness and follicular epithelia), in words [3]: epidermal hyperplasia
- % increase in epidermal thickness [3, 6]: 203%
- % reduction in number of utriculi [3, 6]: 67.4%
- clinical visible skin irritancy, in words [3]: without concomitant skin irritancy
- SCORE TPA Ear swelling [4]: 3 (% inhibition ET ≧50 p < 0.05)

SMILES: O=C(OOC(=O)c1ccccc1)c1ccccc1 [Benzoyl peroxide]
- SCORE OXA Oedema 48 hours p.c. [2]: 0 (% inhibition Oedema 48 h PC < 25)
- Skin irritation YES/NO ([3]; Basiron gel 5%): YES
- % increase in epidermal thickness [3, 7]: 178%
- % reduction in number of utriculi [3, 7]: 46.1%
- Skin irritation YES/NO ([3]; Basiron gel 10%): YES
- % increase in epidermal thickness [3, 8]: 190%
- % reduction in number of utriculi [3, 8]: 62.1%
- SCORE TPA Ear swelling [4]: 0 (% inhibition ET <25)
- Anti-inflam. ([1]; topical administration): Maybe
- Antibacterial ([1]; topical administration): Yes
- Comedolytic ([1]; topical administration): Some-
- Potential irritant ([1]; topical administration): Yes

SMILES: COc1ccc(-c2ccc3cc(C(=O)O)ccc3c2)cc1C12CC3CC(CC(C3)C1)C2 [Adapalene]
- Skin irritation YES/NO ([3]; Differin gel 0.1%): YES
- % increase in epidermal thickness [3, 9]: 202%
- % reduction in number of utriculi [3, 9]: 92.7%

SMILES: Cc1ccccc1C(=O)c1ccc(Nc2ccccc2N)cc1Cl [Compound 103, 4-(2-aminophenylamino)-2-chloro-2′-methylbenzophenone]
- SCORE OXA Oedema 48 hours p.c. [2]: 2 (% inhibition Oedema 48 h PC ≧ 35 p < 0.05)
- comedolytic effect (reduction in number of utriculi), in words [3]: comedolytic effect
- epidermal hyperplasia (increase in epidermal thickness and follicular epithelia), in words [3]: epidermal hyperplasia
- comedolytic effect (reduction in number of utriculi), in words ([3]; listed as 4-(2-aminophenylamino)-2-chloro-2′-methylbenzophenone): comedolytic activity
- % increase in epidermal thickness [3, 6]: 120%
- % reduction in number of utriculi [3, 6]: 52.5%
- clinical visible skin irritancy, in words [3]: without concomitant skin irritancy
- SCORE TPA Ear swelling [4]: 2 (% inhibition ET ≧40 p < 0.05)

SMILES: CCC[C@@H]1C[C@@H](C(=O)N[C@@H]([C@H]2O[C@H](SC)[C@H](O)[C@@H](O)[C@H]2O)[C@H](C)Cl)N(C)C1 [Clindamycin]
- Teratogenic ([1]; topical administration): Probably

SMILES: O=C(O)CCCCCCCC(=O)O [Azelaic acid]
- SCORE OXA Oedema 48 hours p.c. [2]: 0 (% inhibition Oedema 48 h PC < 25)
- % increase in epidermal thickness [3, 10]: 75%
- % reduction in number of utriculi [3, 10]: 5.7%
- SCORE TPA Ear swelling [4]: 0 (% inhibition ET <25)
- Skin irritation YES/NO [5]: NO
- Anti-inflam. ([1]; topical administration): Maybe
- Antibacterial ([1]; topical administration): Yes
- Comedolytic ([1]; topical administration): Yes
- Potential irritant ([1]; topical administration): Yes
- Teratogenic ([1]; topical administration): No

SMILES: Cc1ccccc1C(=O)c1ccc(Nc2ccc(F)cc2N)cc1Cl [Compound 102, 4-(2-Amino-4-fluorophenylamino)-2-chloro-2′-methylbenzophenone]
- comedolytic effect (reduction in number of utriculi), in words [3]: comedolytic effect
- epidermal hyperplasia (increase in epidermal thickness and follicular epithelia), in words [3]: epidermal hyperplasia

SMILES: CCOC(=O)Nc1ccccc1Nc1ccc(C(=O)c2ccccc2C)c(Cl)c1 [Compound 106, ethyl N-(2-(4-(2-methylbenzoyl)-3-chlorophenylamino)phenyl)carbamate]
- SCORE OXA Oedema 48 hours p.c. [2]: 2 (% inhibition Oedema 48 h PC ≧ 35 p < 0.05)
- comedolytic effect (reduction in number of utriculi), in words [3]: comedolytic effect
- epidermal hyperplasia (increase in epidermal thickness and follicular epithelia), in words [3]: epidermal hyperplasia
- comedolytic effect (reduction in number of utriculi), in words ([3]; listed as ethyl N-(2-(4-(2-methylbenzoyl)-3-chlorophenylamino)phenyl)carbamate): comedolytic activity
- % increase in epidermal thickness [3, 6]: 146%
- % reduction in number of utriculi [3, 6]: 38.3%
- clinical visible skin irritancy, in words [3]: without concomitant skin irritancy
- SCORE TPA Ear swelling [4]: 2 (% inhibition ET ≧40 p < 0.05)

SMILES: CC1=C(/C=C/C(C)=C/C=C/C(C)=C\C(=O)O)C(C)(C)CCC1 [Isotretinoin]
- Anti-inflam. ([1]; systemic administration): Yes
- Antibacterial ([1]; systemic administration): Yes
- Comedolytic ([1]; systemic administration): Yes
- Potential irritant ([1]; systemic administration): Yes
- Teratogenic ([1]; systemic administration): Yes

SMILES: CN(C)[C@@H]1C(=O)C(C(N)=O)=C(O)[C@@]2(O)C(=O)C3=C(O)c4c(O)cccc4[C@@](C)(O)[C@H]3C[C@@H]12 [Tetracyclin]
- Anti-inflam. ([1]; systemic administration): Yes
- Antibacterial ([1]; systemic administration): Yes
- Comedolytic ([1]; systemic administration): No
- Potential irritant ([1]; systemic administration): No
- Teratogenic ([1]; systemic administration): Yes

SMILES: C[C@H]1c2cccc(O)c2C(O)=C2C(=O)[C@]3(O)C(O)=C(C(N)=O)C(=O)[C@@H](N(C)C)[C@@H]3[C@@H](O)[C@@H]21 [Doxycyclin]
- Anti-inflam. ([1]; systemic administration): Yes
- Antibacterial ([1]; systemic administration): Yes
- Comedolytic ([1]; systemic administration): No
- Potential irritant ([1]; systemic administration): No
- Teratogenic ([1]; systemic administration): Yes

SMILES: CC[C@H]1OC(=O)[C@H](C)[C@@H](O[C@H]2C[C@@](C)(OC)[C@@H](O)[C@H](C)O2)[C@H](C)[C@@H](O[C@@H]2O[C@H](C)C[C@H](N(C)C)[C@H]2O)[C@](C)(O)C[C@@H](C)C(=O)[C@H](C)[C@@H](O)[C@]1(C)O [Erythromycin]
- SCORE OXA Oedema 48 hours p.c. [2]: 0 (% inhibition Oedema 48 h PC < 25)
- SCORE TPA Ear swelling [4]: 1 (% inhibition ET ≧25 p < 0.05)

SMILES: CC1=C(/C=C/C(C)=C/C=C/C(C)=C/C(=O)O)C(C)(C)CCC1 [All-trans retinoic acid]
- SCORE OXA Oedema 48 hours p.c. [2]: 0 (% inhibition Oedema 48 h PC < 25)
- Skin irritation YES/NO ([3]; 20 μg/ml in ethanol, period 1): YES
- % increase in epidermal thickness [3, 11]: 110%
- % reduction in number of utriculi [3, 11]: 81.5%
- SCORE TPA Ear swelling [4]: 0 (% inhibition ET <25)
- Anti-inflam. ([1]; topical administration): No
- Antibacterial ([1]; topical administration): No
- Comedolytic ([1]; topical administration): Yes
- Potential irritant ([1]; topical administration): Yes
- Teratogenic ([1]; topical administration): Maybe

— US6624199B1, “Aminobenzophenones” (Leo Pharmaceuticals Products Ltd. A/S, priority 1999, dated 2003)
